Test results as given in publication PMC6211275, “Phosphonate inhibitors of West Nile virus NS2B/NS3 protease” (Journal of Enzyme Inhibition and Medicinal Chemistry, 2018).
Like-named read-outs stand apart in the source and are kept apart here. Marks after values point to notes of the source that are not given here. Peptide text beside a SMILES is read from it. * marks the point of attachment. Cbz = O=C(OCc1ccccc1)*; PhAc = O=C(Cc1ccccc1)*

How the values were obtained:
[1] = system: West Nile virus NS2B/NS3 protease; settings: cited from earlier work
[2] = system: Dengue and WNV titres; parameters: method as in earlier work; settings: cell-based assays of virus replication; ref 15 (Behnam et al.); read-out: EC50, reduction of Dengue and WNV titres; cited from earlier work
[3] = target: WNV NS2B/NS3 protease (West Nile virus, UniProt P06935); experiment: In vitro NS2B/NS3 protease inhibition (fluorescent substrate Pyr-RTKR-AMC, progress curve method); assay type: biochemical; settings: for percent of inhibition: inhibitor 100 µM, after 30 min incubation at 37 °C; for k2/Ki: Table 2, peptide phosphonates; for improvement in inhibitory potency after introduction of P2 Arg and P3 Lys: peptidyl derivative vs. simple Cbz-protected parent phosphonate
Method: For the initial screening, Cbz-protected aminophosphonates were assayed in 96 well microplates (Nunc™ F96 MicroWell™ White Polystyrene Plate) in the following protease buffer: 50 mM Tris, 1 mM Chaps, 20% glycerol, pH 8.5. WNV NS2B/NS3 protease (AnaSpec, Liege, Belgium; 20 nM) was pre-incubated with tested inhibitor (100 µM) in the protease buffer at 37 °C for 10 min prior an addition of the fluorescent substrate Pyr-RTKR-AMC (AnaSpec, Liege, Belgium; 20 µM). The progress of the reaction was monitored continuously (λex = 354 nm, λem = 442 nm) at 37 °C on a Spectra Max Gemini XPS spectrofluorometer (Molecular Devices, Sunnyvale, CA) for 30 min. […] In 96 well microplates narrowed concentration of inhibitors and constant substrate concentration (Pyr-RTKR-AMC, C = 20 µM, KM = 59 µM) were prepared. The enzyme solution was added and enzymatic reaction was monitored (Figure S1). Using a model for irreversible inhibition, in which the first order inactivation rate constant kobs is hyperbolic dependent from the inhibitor concentration Ki and k2/Ki values were calculated (equations (1–4) in supplementary material)[29]. Control progress curves in the absence of inhibitor were linear.
The inhibitory activity of the compounds was determined by the progress curve method. First the data from nonlinear progress curves with time dependent inhibitors were fit to eq.1 to obtain the first-order rate constant (kobs):
The second-order rate constants (k2/KI) and (KI)app values were calculated using hyperbolic regression according to equation 3: […]
KI values were calculated according to equation 3: […]

[4] = target: T1, Bovine β-trypsin (Bos taurus, UniProt P00760); experiment: Control proteases inhibition assay, trypsin; assay type: biochemical; settings: inhibitor concentration 25 μM, after 30 min incubation at 37 °C
T1 construct: purchased AppliChem, Łódź, Poland
T1 sequence (P00760 24-246): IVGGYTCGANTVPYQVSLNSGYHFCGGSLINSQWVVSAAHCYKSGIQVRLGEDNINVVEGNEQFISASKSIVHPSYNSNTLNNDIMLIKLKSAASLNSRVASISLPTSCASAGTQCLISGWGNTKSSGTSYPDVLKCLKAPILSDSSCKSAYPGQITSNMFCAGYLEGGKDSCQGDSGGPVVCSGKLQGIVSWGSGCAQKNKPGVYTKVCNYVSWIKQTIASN
Method: (§1) Bovine β-trypsin (AppliChem, Łódź, Poland), human cathepsin G (Biocentrum, Kraków, Poland) and Human Airway Trypsin-like Protease (HAT) (R&D Systems, Minneapolis, MN) were used as control proteases to screen the activity of NS2B/NS3 protease inhibitors (36–39) obtained in this study. Inhibitors were assayed in 96-well microplates in the 0.1 M HEPES, 0.5 M NaCl, 0.03%, pH 7.5 Triton X-100 (for bovine β-trypsin and cathepsin G). Bovine β-trypsin (15 nM), human cathepsin G (150 nM) or HAT protease (0.001 µg) was pre-incubated with tested inhibitor (25 µM) in the protease buffer at 37 °C for 10 min prior to the addition of the fluorescent substrate: Cbz-Arg-AFC (synthesised in-house according to the procedure described by Bissell[30]; 50 µM; λex = 400 nm, λem = 505 nm, for bovine β-trypsin); MeO-Suc-Ala-Ala-Pro-Val-AMC (Bachem, Bubendorf, Switzerland; 40 µM, λex = 340 nm, λem = 440 nm, for human cathepsin G) or Phe-Ser Arg-AMC (Bachem, Bubendorf, Switzerland; 40 µM, λex = 340 nm, λem = 440 nm, for HAT protease). The progress of the reactions was monitored continuously at 37 °C on a Spectra Max Gemini XPS spectrofluorometer for 20 min. Control curves in the absence of inhibitor were linear. The rate of the tested protease inhibition was calculated from the linear range of the plot.

[5] = target: T2, human cathepsin G (Homo sapiens, UniProt P08311); experiment: Control proteases inhibition assay, cathepsin G; assay type: biochemical; settings: inhibitor concentration 25 μM, after 30 min incubation at 37 °C
T2 construct: purchased Biocentrum, Kraków, Poland
T2 sequence (P08311 21-255): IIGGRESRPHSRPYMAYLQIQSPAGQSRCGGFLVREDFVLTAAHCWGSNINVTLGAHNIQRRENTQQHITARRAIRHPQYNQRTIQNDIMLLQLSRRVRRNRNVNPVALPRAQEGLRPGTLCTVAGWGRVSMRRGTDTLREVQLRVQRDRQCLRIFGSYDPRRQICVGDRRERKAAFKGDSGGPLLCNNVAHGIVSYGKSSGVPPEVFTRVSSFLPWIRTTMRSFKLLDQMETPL
Method: as §1

[6] = target: T3, Human Airway Trypsin-like Protease (HAT) (Homo sapiens, UniProt O60235); experiment: Control proteases inhibition assay, HAT protease; assay type: biochemical; settings: inhibitor concentration 25 μM, after 30 min incubation at 37 °C
T3 construct: purchased R&D Systems, Minneapolis, MN
T3 sequence (O60235 1-418): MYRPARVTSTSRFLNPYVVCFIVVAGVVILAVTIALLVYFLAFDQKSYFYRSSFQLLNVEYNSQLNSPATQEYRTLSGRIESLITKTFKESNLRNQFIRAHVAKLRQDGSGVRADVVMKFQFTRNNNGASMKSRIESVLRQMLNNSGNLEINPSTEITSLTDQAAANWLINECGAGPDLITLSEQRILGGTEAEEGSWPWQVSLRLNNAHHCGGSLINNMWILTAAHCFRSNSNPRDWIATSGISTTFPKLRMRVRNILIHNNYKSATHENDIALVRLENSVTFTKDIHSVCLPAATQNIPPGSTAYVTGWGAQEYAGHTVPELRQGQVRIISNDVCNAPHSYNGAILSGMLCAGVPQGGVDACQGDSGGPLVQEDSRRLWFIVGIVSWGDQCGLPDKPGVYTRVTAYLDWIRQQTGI
Method: as §1

[7] = Stability in assay buffer (HPLC analysis); assay type: physicochemical
Method: Stability in assay buffer. A stock solution of compound (38) (10 mM in acetonitrile) was added to the assay buffer (50 mM Tris, 1 mM Chaps, 20% glycerol, pH 8.5) to make a final concentration of 2 mg/mL and incubated at 37°C. The resulting mixture was subjected to HPLC analysis to determine compound stability using a Discovery® BIO Wide Pore C8 HPLC Column (250 mm × 4.6 mm, 10 μm) with a 1 mL/min flow rate, gradient 0−100% [0.05% TFA in acetonitrile] in [0.05% TFA in water] over a period of 15 min.

[8] = tripeptide aldehydes, ref 11 (Stoermer et al.)

Chain of WNV NS2B/NS3 protease (P06935 1502-1680): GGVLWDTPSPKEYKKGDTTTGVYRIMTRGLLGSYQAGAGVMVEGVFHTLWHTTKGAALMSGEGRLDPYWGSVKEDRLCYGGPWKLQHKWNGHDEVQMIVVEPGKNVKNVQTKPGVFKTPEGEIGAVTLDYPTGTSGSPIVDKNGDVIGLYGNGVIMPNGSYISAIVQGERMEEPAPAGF
Chain of WNV NS2B/NS3 protease (P06935 1419-1466): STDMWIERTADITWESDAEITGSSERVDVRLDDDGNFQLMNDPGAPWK

## N=C(N)NCCC[C@@H](C=O)NC(=O)[C@H](CCCCN)NC(=O)[C@H](CCCCN)NC(=O)Cc1ccc(-c2ccccc2)cc1 [Compound 1]
[1]; [8]
  Ki: 6 nM

## N=C(N)NCCC[C@@H](C=O)NC(=O)[C@H](CCCCN)NC(=O)[C@H](CCCCN)NC(=O)Cc1ccccc1 [Compound 2] (PhAc-Lys-Lys-Arg-aldehyde)
[1]; [8]
  Ki: 9 nM

## N=C(N)NC1CCC(CNC(=O)[C@H](CCCCN)NC(=O)[C@H](CCCCN)NC(=O)Cc2ccc(Cl)c(Cl)c2)CC1 (some centres unmarked) [Compound 3]
[1]; ref 13 (Hammamy et al.)
  Ki: 130 nM

## NCCCC[C@H](NC(=O)c1ccc(/C=C2\SC(=O)N(CC3CCCCC3)C2=O)cc1)C(=O)N[C@@H](CCCCN)C(=O)N[C@H](C(N)=O)c1ccccc1 [Compound 4]
[1]; ref 14 (Bastos et al.)
  Ki: 750 nM

## N=C(N)NCCC[C@H](Nc1nccs1)C(=O)N[C@@H](CCCCN)C(=O)N[C@H](C(N)=O)c1ccc(OCc2ccc(C(F)(F)F)cc2)cc1 [Compound 5]
[1]; ref 15 (Behnam et al.)
  Ki: 39 nM
[2]
  EC50: 15500 nM

## N=C(N)SCCCC(NC(=O)OCc1ccccc1)P(=O)(Oc1ccccc1)Oc1ccccc1 (centres unmarked) [Compound 8]
[3]; substrate Pyr-RTKR-AMC 20 µM
  percent of inhibition: 22%

## NC(=O)CCC(NC(=O)OCc1ccccc1)P(=O)(Oc1ccccc1)Oc1ccccc1 (centres unmarked) [Compound 11, Cbz-Gln^P(OPh)2]
[3]; substrate Pyr-RTKR-AMC 20 µM
  percent of inhibition: 15%

## N#Cc1ccc2cc(C(NC(=O)OCc3ccccc3)P(=O)(Oc3ccccc3)Oc3ccccc3)ccc2c1 (centres unmarked) [Compound 22]
[3]; substrate Pyr-RTKR-AMC 20 µM
  percent of inhibition: 2%

## N=C(N)c1ccc2cc(C(NC(=O)OCc3ccccc3)P(=O)(Oc3ccccc3)Oc3ccccc3)ccc2c1 (centres unmarked) [Compound 23]
[3]; read-out: percent of inhibition
  inhibition at 100 µM: 12%

## O=C(NC(c1ccc(-n2cccn2)cc1)P(=O)(Oc1ccccc1)Oc1ccccc1)OCc1ccccc1 (centres unmarked) [Compound 24, Benzyl ((4-(1H-pyrazol-1-yl)phenyl)(diphenoxyphosphoryl)methyl)carbamate]
[3]; substrate Pyr-RTKR-AMC 20 µM
  percent of inhibition: 5%

## O=C(NC(c1ccc(-n2cnc3ccccc32)cc1)P(=O)(Oc1ccccc1)Oc1ccccc1)OCc1ccccc1 (centres unmarked) [Compound 25]
[3]; substrate Pyr-RTKR-AMC 20 µM
  percent of inhibition: 4%

## CN1CCN(c2ccc(C(NC(=O)OCc3ccccc3)P(=O)(Oc3ccccc3)Oc3ccccc3)cc2)CC1 (centres unmarked) [Compound 26]
[3]; substrate Pyr-RTKR-AMC 20 µM
  percent of inhibition: 3%

## O=C(NC(c1ccc(N2CCOCC2)cc1)P(=O)(Oc1ccccc1)Oc1ccccc1)OCc1ccccc1 (centres unmarked) [Compound 27]
[3]; substrate Pyr-RTKR-AMC 20 µM
  percent of inhibition: 1%

## N=C(N)NCCC[C@H](NC(=O)[C@H](CCCCN)NC(=O)OCc1ccccc1)C(=O)NC(CCCCN)P(=O)(Oc1ccccc1)Oc1ccccc1 (stereo partly drawn) [Compound 36, Cbz-Lys-Arg-Lys^P(OPh)2]
[3]
  Ki: 8000 ± 900 nM
  improvement in inhibitory potency after introduction of P2 Arg and P3 Lys: 69 fold
[3]; substrate Pyr-RTKR-AMC 20 µM
  k2/Ki: 5 520 M^−1s^−1
[4]
  percent of inhibition, Trypsin: 8%^a
[5]
  percent of inhibition, CatG: 2%
[6]
  percent of inhibition, HAT: 2%

## N=C(N)NCCCC(NC(=O)[C@H](CCCNC(=N)N)NC(=O)[C@H](CCCCN)NC(=O)OCc1ccccc1)P(=O)(Oc1ccccc1)Oc1ccccc1 (stereo partly drawn) [Compound 37, Cbz-Lys-Arg-Arg^P(OPh)2]
[3]
  Ki: 3000 ± 300 nM
  improvement in inhibitory potency after introduction of P2 Arg and P3 Lys: 69 fold
[3]; substrate Pyr-RTKR-AMC 20 µM
  k2/Ki: 10 725 M^−1s^−1
[4]
  percent of inhibition, Trypsin: 7%
[5]
  percent of inhibition, CatG: 3%
[6]
  percent of inhibition, HAT: 2%

## N=C(N)NCCC[C@@H](NC(=O)[C@@H](CCCCN)NC(=O)OCc1ccccc1)C(=O)NC(Cc1ccc(NC(=N)N)cc1)P(=O)(Oc1ccccc1)Oc1ccccc1 (stereo partly drawn) [Compound 38, Cbz-Lys-Arg-(4-GuPhe)^P(OPh)2]
[3]
  Ki: 400 ± 30 nM
[3]; read-out: k2/Ki
  kinact/KI: 28300 M⁻¹ s⁻¹
[4]
  percent of inhibition, Trypsin: no significant inhibition
[4]; read-out: percent of inhibition, Trypsin
  inhibition at 25 µM: 4%
[5]
  percent of inhibition, CatG: no significant inhibition
[5]; read-out: percent of inhibition, CatG
  inhibition at 25 µM: 7%
[6]
  percent of inhibition, HAT: no significant inhibition
[6]; read-out: percent of inhibition, HAT
  inhibition at 25 µM: 5%
[7]; during enzyme inhibition assay time, assay buffer pH 8.5
  inhibitor degradation: ~ 1%
[7]; over 6 hours, assay buffer pH 8.5, 37 °C
  degradation of compound: ~ 13%
[7]; time 0.0 h, assay buffer pH 8.5, 37 °C
  % of initial inhibitor concentration: 100%
[7]; time 0.5 h, assay buffer pH 8.5, 37 °C
  % of initial inhibitor concentration: 98,93%
[7]; time 1.0 h, assay buffer pH 8.5, 37 °C
  % of initial inhibitor concentration: 98,12%
[7]; time 1.5 h, assay buffer pH 8.5, 37 °C
  % of initial inhibitor concentration: 96,27%
[7]; time 2.0 h, assay buffer pH 8.5, 37 °C
  % of initial inhibitor concentration: 95,19%
[7]; time 2.5 h, assay buffer pH 8.5, 37 °C
  % of initial inhibitor concentration: 95,04%
[7]; time 3.0 h, assay buffer pH 8.5, 37 °C
  % of initial inhibitor concentration: 93,35%
[7]; time 3.5 h, assay buffer pH 8.5, 37 °C
  % of initial inhibitor concentration: 91,90%
[7]; time 4.0 h, assay buffer pH 8.5, 37 °C
  % of initial inhibitor concentration: 91,11%
[7]; time 4.5 h, assay buffer pH 8.5, 37 °C
  % of initial inhibitor concentration: 88,43%
[7]; time 5.0 h, assay buffer pH 8.5, 37 °C
  % of initial inhibitor concentration: 86,99%
[7]; time 5.5 h, assay buffer pH 8.5, 37 °C
  % of initial inhibitor concentration: 86,84%
[7]; time 6.0 h, assay buffer pH 8.5, 37 °C
  % of initial inhibitor concentration: 86,73%

## N=C(N)NCCCC(C=O)NC(=O)C(CCCNC(=N)N)NC(=O)C(CCCCN)NC(=O)OCc1ccccc1 (stereo not drawn) [Compound 40, Cbz-Lys-Arg-Arg-H, reference compound] (Cbz-Lys-Arg-Arg-aldehyde; configuration not given here)
[3]; Table 2, peptide phosphonates and reference aldehyde, substrate Pyr-RTKR-AMC 20 µM, read-out: Ki
  Ki: 120 ± 20 nM
